In PMC5740082, “Identification of a CARM1 Inhibitor with Potent In Vitro and In Vivo Activity in Preclinical Models of Multiple Myeloma” (Scientific Reports, 2017):
Like-named read-outs stand apart in the source and are kept apart here.

Experiments:
[1] = test system: PABP1 and SmB methylation in NCI-H929 cells; assay: Western blot of cellular methyl marks, NCI-H929; conditions: Homo sapiens, NCI-H929, 96 h
Procedure: Methylation changes were measured at the well-characterized CARM1 substrates PABP1 and SmB[1],[10]. Changes in overall levels of asymmetric dimethyl arginine (aDMA) were assessed with an antibody that detects a generic aDMA motif. Levels of methylated analytes were quantified by densitometry and ratios of methylated to total protein were calculated to determine the cell biochemical IC50 values.
Cultured cells in linear/log phase growth were split to a seeding density of 2e5 cells/mL in 2–20mLs of media, depending on the yield required at the end of the growth period. Compound was diluted in DMSO and added to each culture vessel with a final DMSO concentration of 0.2%. Cells were allowed to grow for 96 hours. At the conclusion of each treatment period, cells were harvested by centrifugation (5 minutes, 1200 rpm), and cell pellets were rinsed once with PBS before being frozen on dry ice pending further processing.
Quantification of Western blots was performed using infra-red emitting secondary antibodies and detection with an ODYSSEY infrared imaging system.

[2] = test system: MC/CAR; assay: Six-day cell proliferation assay (CellTiter-Glo); type: cell-based; conditions: 144 h; MC/CAR (EBV+ B-lymphoblastoid), 6 days; read-out: Average day 6 gIC50
Procedure: (§1) Six-day cell proliferation assay
(§2) Optimal cell seeding density was determined empirically for each cell lines by examining the gro wth of a wide ran ge o f seedin g densities in a 3 84-well formatto identify conditio ns that permitted maximal and continued proliferation for 6 days. Cells were plat ed in duplicate plates 24 hours before treatment with a 20- point two-fold dilution series of compound or 0.15%
(§3) DMSO. Plates were incubated for 6 da ys at 37°C in 5% CO2. Cells were th en l ysed with CellTiter-Glo (CTG) (Pr omega) and chemiluminescent sign al was detected with an appropriat e microplate reader. In addition, an untreated plate of cells was harvested at the time of compound addition (T0) to quantif y the initial cell densit y. CTG values obtained after 6 days of treatment were expressed as a percent of the T0 value and plotted against compound concentration. […]
(§4) Supplementary Table S 3. […] A p anel […]
(§5) of cell lines was treated with EZM2302fo r 6da ys in a proliferation ass a y. Cell densit y (as assessed b y CellTiter-Gl o) at da y 0 was compared to day 6 to det ermine growth IC 50 values , calculated us i n g a f our parameter dose response equation.
(§6) Cell Type According to Cell Type Category Cell L ine Name gIC50 Average day 6 Standard Replicates
(§7) Supplier Modifier gIC50 (nM) Deviation […]
(§8) Burkitt lymphoma lymphoma NC-37 > 7331 0 2 […]

[3] = test system: EJM; assay: Six-day cell proliferation assay (CellTiter-Glo); type: cell-based; conditions: Homo sapiens, 144 h; EJM (MM), 6 days; read-out: Average day 6 gIC50
Procedure: as §1, §2, §3, §4, §5, §6, §7, §8

[4] = Hepatocyte stability; type: in vitro ADME; conditions: 1 µM
Procedure: (§9) Hepatocyte stability, plasma protein binding and cytochrome P450 assays were performed using standard procedures. Details can be found in Supplementary Methods. […]
where K I and K J are th e inhibition constants for I and J , respectivel y, and alpha is a constant describing the effect of one inhibitor on the binding of another inhibitor 8.
Reversibility experiments were performed in assay buffer lacking bovine skin gelatin. CARM1 […]
mixture was purified using pre-equilibrated 0.5 mL Zeba (7MWCO) spin columns (Thermo Fisher) following manufacturer ’s instructions. CARM1 was diluted to 0.5 nM in an assay reaction mixture using previously described conditions and activity was measured over 2 hours.
Proteins were kept at 4 °C for further activit y testing. Similar results were also obtained when […]
Methyltransf erase cros s screening panel […]
gen eral p rocedu res f rom Knutson et al.9
In cell w estern assay f or detection of asymmetric di -methyl PABP1 an d DNA content RKO cells (ATCC) were maintained in growth medium (DMEM/Glutamax medium supplemented with 10% v/v heat inactivated fetal bovine serum and 100 units/mL penicillin-streptom ycin) and cultured at 37 °C under 5% CO2. Cells were seeded in assay medium at a concentration of 30,000 cells per m L to a pol y -D-l ys ine coated 384 well culture plate with 50 µ L per well. […]

[5] = Plasma protein binding (equilibrium dialysis), rat plasma; type: in vitro ADME; conditions: Sprague-Dawley, pH 7.4
Procedure: as §9
Plasma protein binding was assessed b y equilibrium dial ysis, utilizing the HT-dial ysis cell format with a cellulose semi- permeable membran e (molecular wei ght cut-off of 5000 Da).
(pH 7.4) and 100% mixed gender pooled human, pooled male CD -1 mouse or Sprague-Dawle y rat plasma. The buffer solution was added to one s ide of the membrane and the plasma solution to the other side. Incubations were performed in duplicate for 16 h, at 37°C, in order to allow the compounds to reach equi librium. Haloperidol was incubated in parallel as the control compound for each speci es. At the end of the incubation time, samples were taken from both sides of the membrane. Following protein precipitation, the samples were anal yz ed b y LC-MS/MS using two sets of calibration standards for protein free (7 poi nts) and protein containi ng solutions (6 points). Samples were quantified using standard curves prepared in the equivalent matrix. The fraction unbound in plas ma (fu) was calculated us ing the followin g equ ation: […]

## CNC[C@@H](O)COc1ccc(Cl)c(-c2nc(-c3c(C)noc3C)c(C)c(N3CC4(CCN(C(=O)OC)CC4)C3)n2)c1 [EZM2302]
[1]; read-out: IC50, PABP1me2a
  IC50: 9 nM
[1]; read-out: IC50, SmBme0
  IC50: 31 nM
[2]
  IC50: 241 nM
[3]
  IC50: > 20200 nM
[4]
  CL in human hepatocytes (scaled): < 3 mL/min/kg
[5]
  fraction unbound at 16 h, 5 µM: 0.74
